Consider 3 compounds from patent US20240401000A1, “SUSPENSION-BASED 3D CULTURE METHOD FOR ORGANOIDS” (BRIGHAM YOUNG UNIVERSITY, priority 2021, published 2024).

Series [1] concerns secreted factors from hFLO aggregates. In words: Cytokine array of media from hFLO treatment groups. The series is classed as cell-based, human. The settings on record: media at day 14. As for the experimental part:
The organoid media from the three treatment groups were collected at day 14. The levels of cytokines secreted to the media were immediately evaluated using the Human Cytokine Array C1000 (AAH-CYT-1000-8, Ray Biotech, GA, USA) with minor modifications. Briefly, the membranes were blocked at room temperature for 30 minutes using the blocking buffer. The media from the organoids were transferred onto the membranes and incubated with gentle rocking overnight at 4° C. After washing, the membranes were incubated with the biotinylated antibody cocktail overnight at 4° C. After further washes, the membranes were probed with Streptavidin-CF680R (29072, Biotium, CA, USA 1:1000) for 1 hour at RT. The membranes were imaged using an Odyssey CLx imager (LI-COR, Cambridge, UK) at high resolution and a wavelength of 700 nm. The exported images of the membranes were quantified using gel analysis plugin on FIJI distribution of ImageJ (open source) under the GNU General Public License.
To further confirm the fibrosis in hFLO-bleomycin fibrotic model and the anti-fibrotic effects of fasudil, we collected culture media from the aggregates and performed a cytokine array using 120 common inflammatory factors.

Series [2] concerns human fluorescent lung organoid (hFLO). In words: Bleomycin-induced fibrosis in hFLO with fasudil antifibrotic trial (histochemistry, immunohistochemistry, live confocal imaging). The settings on record: for lumen area: bleomycin 20 μg mL−1 for 3 days from day 7, then 10 μM fasudil for 4 days, day 14; for collagen deposition (Masson staining) / pro-fibrotic expression (αSMA, fibronectin, PDGFRα; H-DAB): bleomycin 20 μg mL−1 for 3 days, then 10 μM fasudil for 4 days. The series is classed as cell-based. As for the experimental part:
Cell aggregates were grown as described above for 7 days, after which the cell aggregates were treated with 20 μg mL 1 bleomycin (13877, Cayman Chemical Company, MI, USA, stock solution diluted in either PBS or DMSO). Media was changed after 3 days of culture with bleomycin (i.e., at day 10). At day 10, the organoids were weaned off the bleomycin insult and then treated with either 10 μM fasudil (B3523, ApexBio, TX, USA) or with DMSO (control, vehicle used for fasudil). The cultures were kept in treatment media for 4 more days with media changing every two days. Cell aggregates and media were collected and fixed as described above.
Histologically stained samples were imaged and processed with ImageJ software. First, images were converted to an 8-bit greyscale, after which a threshold was applied. The image was then processed five times iteratively with the dilate function to converging boundary cells. […] The “count particles” function was used to measure lumen characteristics. Data was processed in Microsoft Excel, lumen under the size of 200 μm2 were excluded in all analysis except the calculations of total lumen area and lumen percent arca.
The ratios of collagen to tissue in organoids were determined by analyzing images of Masson-Trichrome stained sections. These images were separated into red, blue, and green components using ImageJ using color deconvolution function. For the Masson staining, areas of the blue and red image channels were determined by thresholding and collagen deposition was determined as the ratio of blue area to red area (collagen to tissue). Intensity histograms were created using the ImageJ histogram function on the selected red area, and average pixel intensity was calculated from the histogram output in Microsoft Excel. For H-DAB, the target protein is the brown channel and the hematoxylin is the blue-purple channel.
There is a critical need for viable organotypic models for the human lung to model diseases including pulmonary fibrosis (PF). In order to fill this need, we induced fibrosis using bleomycin in our hFLO model. Bleomycin-induced PF is an extensively used animal-based model for fibrosis, despite significant cellular and molecular differences between mouse and human lungs. Moreover, therapeutics against PF are limited due to lack of organotypic lung models adapted for drug testing and screening. […] This therapy, however, has not yet been validated in a human lung model. Here, we grew hFLO for 7 days and induced fibrosis using 20 μg mL−1 bleomycin for 3 days, after which aggregates were treated with 10 μM fasudil, a ROCK inhibitor for 4 days to observe possible changes in fibrosis (FIG. 5A). […] In PF, there is an observed alveolar and bronchiolar epithelial cell death and fibroblast abundance. We observed that with bleomycin induction, there was a decrease in the epithelial A549 with an increase in fibroblast HFL1 population ([…]).

In series [3] the test system is A549, EAhy and HFL1 triculture aggregates. The series can be described thus: 3D triculture suspension culture with soluble ECM (self-patterning, growth, fibronectin). The following applies: 100 μg mL−1 soluble ECM; day 14. Format: cell-based, human. On the procedure: To calculate the seeding ratios for each cell line, literature search led us to lung alveolar cell ratios to be around 24% epithelial, 30% endothelial, and 37% interstitial. By this, we simplified the seeding ratio to be roughly 1:2:2 (A549 epithelial: EAhy endothelial: HFL1 fibroblast). For suspension-based cultures, a seeding ratio of 1.0×104 to 1.0×10^5 total cells per aggregate was used and was divided to cach of the cell line using the ratio above. 100-200 μL of mixed cell suspension in 3D media or ECM supplemented 3D media were seeded into cach well of the 96-well ULA plate. […]
Triculture cell aggregates were grown for 14 days using either traditional force aggregation (FA) or as supplemented with 300 μg mL^−1 Matrigel®. […] Cell aggregate sections were then selected using the freeform selection tool and measured for area. […]
We then engineered a 3D triculture to model the lung alveolus and the morphological changes accompanying soluble ECM concentration. […] Cell seeding ratios were followed based on endogenous human lung cell composition which we determined to be roughly 1:2:2 (epithelial: interstitial: vascular) (Table S1).

Where [4] appears, read: of 120 common inflammatory factors.
Where [5] appears, read: bleomycin 20 μg mL−1, live 3D confocal volumetric analysis.

As to bleomycin, in series [1], the “secretion of pro-angiogenic factors including FGF2 and VEGFA” value is “increased secretion”; the “secretion of pro-inflammatory factors (CX3CL1, AREG, CCL3, IL4, IL2, AXL, EGF, IL6 among others)” value was “increase”. Also, the “number of factors significantly increased (Control vs Bleomycin)” value in series [1] (setting [4]) came to 68 factors. Moreover, in series [2] (setting [5]), the “epithelial A549 population” value is “decrease” and the “fibroblast HFL1 population” value is “increase”. In series [2], the lumen area entry is reported as “decreased lumen area”; the “collagen deposition (Masson staining)” value is listed as “increased collagen deposition”; the “pro-fibrotic expression (αSMA, fibronectin, PDGFRα; H-DAB)” value is “increased”.
As for “collagen I: rat tail collagen I (Sigma-Aldrich), used as soluble ECM supplement”, the “aggregate structure (H&E)” value in series [3] is listed as “predominantly compact cell clusters”.
On to `O=S(=O)(c1cccc2cnccc12)N1CCCNCC1` [fasudil], for which, in series [1], the “secretion of pro-angiogenic factors including FGF2 and VEGFA” value is on record as “decreased”; the “secretion of pro-inflammatory factors (CX3CL1, AREG, CCL3, IL4, IL2, AXL, EGF, IL6 among others)” value was “significantly decreased”. In series [1] (setting [4]), the “number of factors significantly changed (Fasudil vs Bleomycin)” value amounted to 56 factors; the “number of factors significantly changed between control and fasudil treatment” value is given as 36 factors. Also, in series [2], the lumen area entry was “rescued”; the “collagen deposition (Masson staining)” value is on record as “decreased intensity”; the “pro-fibrotic expression (αSMA, fibronectin, PDGFRα; H-DAB)” value is given as “lowered”.
